# Results taken from PubChem BioAssay (NCI).
# “And” between values parts separate entries of the source, which are not always exact repeats. Identical values can stand only once.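 Tested at 5 concentrations; 48 h exposure; 96-well plates; endpoints linearly interpolated, else capped at highest concentration. GI50 = concentration required for 50% inhibition of growth. The concentration for full growth arrest is given as TGI.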
# Tests used:
# Experiment in all cases: DTP human tumour cell line panel, 48 h
# SF-295 CNS = test system: SF-295 CNS
# SK-MEL-28 melanoma = test system: SK-MEL-28 melanoma
# NCI-H522 lung = test system: NCI-H522 lung
# MDA-MB-231 breast = test system: MDA-MB-231 breast
# T-47D breast = test system: T-47D breast
# PC-3 prostate = test system: PC-3 prostate
# SF-268 CNS = test system: SF-268 CNS
# UACC-257 melanoma = test system: UACC-257 melanoma
# HOP-62 NSCLC = test system: HOP-62 NSCLC
# SNB-75 CNS = test system: SNB-75 CNS
SMILES,GI50 (SF-295 CNS) [µM],TGI (SF-295 CNS),GI50 (SK-MEL-28 melanoma) [µM],TGI (SK-MEL-28 melanoma) [µM],GI50 (NCI-H522 lung) [µM],TGI (NCI-H522 lung) [µM],GI50 (MDA-MB-231 breast) [µM],TGI (MDA-MB-231 breast) [µM],GI50 (T-47D breast),TGI (T-47D breast) [µM],GI50 (PC-3 prostate),TGI (PC-3 prostate),GI50 (SF-268 CNS) [µM],TGI (SF-268 CNS),GI50 (UACC-257 melanoma),TGI (UACC-257 melanoma) [µM],GI50 (HOP-62 NSCLC) [µM],TGI (HOP-62 NSCLC),TGI (SNB-75 CNS),GI50 (SNB-75 CNS) [µM]
Cc1cc(S(N)(=O)=O)c(S/C(=N\Nc2ccc([N+](=O)[O-])cc2)c2ccc(O)cc2)cc1Cl,2.07,3.92 µM,2.62,5.73,6.07,43.5,1.78,4.67,2.54 µM,6.64,3.26 µM,8.55 µM,2.22,8.19 µM,5.22 µM,19.3,5.02,16.8 µM,,
Clc1ccccc1C1N2CCCCC2[C@@H]2c3[nH]c4ccccc4c3CCN12 (stereo not given in full),,58.9 µM,,34.2,,,,,,,,,,38.4 µM,,42.2,,59.3 µM,66.7 µM,
COc1ccc(C(=O)Nc2ccc(S(=O)(=O)NCC(=O)O)cc2)cc1,,> 100 µM,,> 100,,> 100,,,,,,,,> 100 µM,,> 100,,,> 100 µM,
CCOC(=O)C12CCSC1C1(C#N)C(C#N)=CC2(N=P(c2ccccc2)(c2ccccc2)c2ccccc2)n2c(=O)n(-c3ccccc3)c(=O)n21 (stereo not given),,> 100 µM,,73.3,,87.2,,,,,,,,> 100 µM,,94.3,,> 100 µM,> 100 µM,
CCCCCCCCCCCCC/C=C1\C[C@H](O)COC1=O,,33 µM,,30.3,,33.5,,,,,,,,38 µM,,28.4,,31.8 µM,30.7 µM,
CN(C)CCNC(=O)c1cccc2ccc(-c3cccnc3)nc12,,24.1 µM,,24.3,,,,,,,,,,26.3 µM,,15,,19.2 µM,23.7 µM,
O=c1c2cc(Br)ccc2nc(-c2ccccc2)n1NCC1(O)OCC(O)C(O)C1O (stereo not given),,> 100 µM,,> 100,,> 100,,,,,,,,> 100 µM,,> 100,,> 100 µM,> 100 µM,
COc1cc(CNc2nc3cc(N)cc(N)c3nc2-c2ccccc2)cc(OC)c1OC,1.67,5.62 µM,8.53,17.6,> 50,> 50,7.3,15.2,,,2.18 µM,> 50 µM,2.93,14 µM,3.45 µM,10.8,17.1,> 50 µM,14.6 µM,0.813
Cc1ccc(/C=N/NS(=O)(=O)c2ccccc2)cc1,,> 100 µM,,> 100,,,,,,,,,,> 100 µM,,> 100,,> 100 µM,> 100 µM,
COc1cc[c]([Sb]([Br])([CH]=C(C)C)([CH]=C(C)C)[CH]=C(C)C)cc1,18.4,87.2 µM,2.98,93.5,2.48,9.23,,,,,,,3.52,35.8 µM,3.45 µM,> 100,29.5,> 100 µM,,
CCN1CCC2(CC1)NC(=O)c1c(c3ccc(Cl)c(Cl)c3n1C)C2C#N (stereo not given),1.79,4.35 µM,1.65,3.07,5.81,21.7,1.97,4.43,3.09 µM,13.7,> 100 µM,> 100 µM,,,1.84 µM,3.96,1.61,3.13 µM,4.64 µM,1.75
CC1(C(=O)NCCN(CCNC(=O)C2(C)CC3(C)CC(C)(C2)C(=O)NC3=O)CCNC(=O)C2(C)CC3(C)CC(C)(C2)C(=O)NC3=O)CC2(C)CC(C)(C1)C(=O)NC2=O (stereo not given),,> 100 µM,,> 100,,,,,,,,,,,,> 100,,> 100 µM,> 100 µM,
NC1=NN(c2ccccc2)C(=O)C1/C(=N\NC(=O)c1cc2ccccc2cc1O)C(=O)Nc1nc([N+](=O)[O-])cs1 (stereo not given),,> 100 µM,,> 100,,37.2,,,,,,,,> 100 µM,,64.4,,> 100 µM,> 100 µM,
NCCn1ccc(NC(c2ccccc2)(c2ccccc2)c2ccccc2)nc1=O,,36.1 µM,,35,,32.8,,,,,,,,31.4 µM,,36.2,,73.8 µM,33.9 µM,
COC1=C(C)C(=O)C2=C(C1=O)C(CO)N1C(C#N)C3CC4C(C1C2N1CCOC41)N3C (stereo not given),0.142,0.845 µM and 0.678 µM and 1.11 µM,,,,,,1.37,0.00033 µM and < 0.0144 µM,,0.00946 µM and 0.0889 µM and 0.0764 µM,0.663 µM and 0.387 µM,,0.94 µM and 0.408 µM and 1.98 µM,0.00238 µM and 0.0198 µM,,0.00557,0.973 µM and 0.902 µM and 3.34 µM,0.141 µM and 0.226 µM and 0.338 µM,0.0669
COc1nc2c(cc1S(=O)(=O)c1ccccc1)CCc1c-2cnn1Cc1ccccc1,9.47,> 100 µM,> 100,> 100,,,> 100,> 100,3.09 µM,79.5,4.23 µM,> 100 µM,> 100,> 100 µM,59.7 µM,> 100,17.7,> 100 µM,> 100 µM,20
O=S(=O)(CC#CCCCOCC#Cc1ccccc1C#CCS(=O)(=O)c1ccccc1)c1ccccc1,29.8,91.3 µM,,,14.6,33,19.8,42.8,> 100 µM,> 100,20.4 µM,65.3 µM,19.6,50.1 µM,14.9 µM,38.9,31.7,> 100 µM,,
NC(=S)N/N=C1\C(=O)N(CCc2ccccc2)C(=O)C1C(=O)NCCc1ccccc1 (stereo not given),,> 100 µM,,> 100,,> 100,,,,,,,,> 100 µM,,> 100,,> 100 µM,> 100 µM,
Cc1cc2c(=O)cc(-c3ccc(C(F)(F)F)cc3)oc2c(C(=O)O)c1C,,> 100 µM,,> 100,,> 100,,,,,,,,> 100 µM,,> 100,,,> 100 µM,
O=C(c1ccco1)c1ccccc1C(=O)c1ccco1,,> 100 µM,,> 100,,,,,,,,,,> 100 µM,,> 100,,> 100 µM,> 100 µM,
N.N.N.N.N.N#N.[Cl-].[Os+7],> 100,> 100 µM,> 100,> 100,> 100,> 100,,,,,,,> 100,> 100 µM,,,,,> 100 µM,> 100
